Data: US20090023747A1, “Cysteine Protease Inhibitors” (priority 2005, published 2009)

Legend:
cathepsin K = molecular target: T1, cathepsin K (Homo sapiens, UniProt P43235); assay: Determination of cathepsin K proteolytic catalytic activity (fluorogenic peptide substrate); assay type: biochemical; conditions: human recombinant enzyme
T1 construct: made in house; host or cells: not fixed: E coli, Pichia or Baculovirus systems named as options
T1 sequence (P43235 115-329): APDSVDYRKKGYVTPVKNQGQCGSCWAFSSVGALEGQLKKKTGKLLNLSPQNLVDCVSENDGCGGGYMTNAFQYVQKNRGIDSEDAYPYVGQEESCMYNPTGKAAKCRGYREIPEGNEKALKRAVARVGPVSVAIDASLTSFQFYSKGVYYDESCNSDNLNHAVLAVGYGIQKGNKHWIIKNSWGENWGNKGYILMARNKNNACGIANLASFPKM
Protocol: Convenient assays for cathepsin K are carried out using human recombinant enzyme, such as that described in PDB.
The recombinant cathepsin K can be expressed in a variety of commercially available expression systems including E coli, Pichia and Baculovirus systems.
The purified enzyme is activated by removal of the prosequence by conventional methods.
Standard assay conditions for the determination of kinetic constants used a fluorogenic peptide substrate, typically H-D-Ala-Leu-Lys-AMC, and were determined in either 100 mM Mes/Tris, pH 7.0 containing 1 mM EDTA and 10 mM 2-mercaptoethanol or 100 mMNa phosphate, imM EDTA, 0.1% PEG4000 pH 6.5 or 100 mM Na acetate, pH 5.5 containing 5 mM EDTA and 20 mM cysteine, in each case optionally with […] as stabiliser. The enzyme concentration used was 5 nM. The stock substrate solution was prepared at 10 mM in DMSO. Screens were carried out at a fixed substrate concentration of 60 μM and detailed kinetic studies with doubling dilutions of substrate from 250 μM. The total DMSO concentration in the assay was kept below 3%. All assays were conducted at ambient temperature. Product fluorescence (excitation at 390 nm, emission at 460 nm) was monitored with a Labsystems Fluoroskan Ascent fluorescent plate reader. Product progress curves were generated over 15 minutes following generation of AMC product.
(§1) Potential inhibitors are screened using the above assay with variable concentrations of test compound. Reactions were initiated by addition of enzyme to buffered solutions of substrate and inhibitor. Ki values were calculated according to equation 1
(§2) where v0 is the velocity of the reaction, V is the maximal velocity, S is the concentration of substrate with Michaelis constant of KM, and I is the concentration of inhibitor.

cathepsin L = cathepsin L (Homo sapiens, UniProt P07711); assay: Cathepsin L Ki determination (H-D-Val-Leu-Lys-AMC substrate); assay type: biochemical
Protocol: The procedure above with the following amendments is used for the determination of Ki for cathepsin L.
The enzyme is commercially available human cathepsin L (for example Calbiochem). The substrate is H-D-Val-Leu-Lys-AMC available from Bahcem. The assay buffer is 100 mM sodium acetate 1 mM EDTA, pH5.5) The DMSO stock (10 mM in 100% DMSO) is diluted to 10% in assay buffer. Enzyme is prepared at 5 nM concentration in assay buffer plus 1 mM dithiothreitol just before use. 2 ul of 10 mM inhibitor made up in 100% DMSO is dispensed into row A. 10 ul of 50 uM substrate (=1/200 dilution of 10 mM stock in DMSO, diluted in assay buffer)
as §1, §2

cathepsin S = molecular target: T2, cathepsin S (Homo sapiens, UniProt P25774); assay: Cathepsin S Ki determination (boc-Val-Leu-Lys-AMC substrate); assay type: biochemical; conditions: baculovirus-expressed human cathepsin S
T2 construct: made in house
Protocol: The assay uses baculovirus-expressed human cathepsin S and the boc-Val-Leu-Lys-AMC fluorescent substrate available from Bachem in a 384 well plate format, in which 7 test compounds can be tested in parallel with a positive control comprising a known cathepsin S inhibitor comparator.
280 μl/well of 12.5% DMSO are added to rows B-H of two columns of a 96 deep well polypropylene plate. 70 μl/well of substrate is added to row A. 2×250 μl/well of assay buffer (100 mM Na phosphate, 100 mM NaCl, pH 6.5) is added to row A, mixed, and double diluted down the plate to row H.
100 μl/well of assay buffer is added to columns 2-5 and 7-12 of 4 rows of a 96 well V bottom polypropylene plate. 200 μl/well of assay buffer is added to columns 1 and 6.
2 μl of each 10 mM test compound is added to a separate well on row A, columns 1-10. Add 90 μl assay buffer containing 1 mM DTT and 2 nM cathepsin S to each well of rows B-H and 180 μl to row A. Mix row A using a multichannel pipette and double dilute to row G. Mix row H and read in the fluorescent spectrophotometer.
The second test compound is added to column 6 of the top row, the third to column 1 of the second row etc. Add 1 μl of comparator to column 6 of the bottom row. Mix column 1 and double dilute to column 5. Mix column 6 and double dilute to column 10.
Using an 8-channel multistepping pipette set to 5×10 μl, distribute 10 μl/well of substrate to the 384 well assay plate. Distribute the first column of the substrate dilution plate to all columns of the assay plate starting at row A. The tip spacing of the multichannel pipette will correctly skip alternate rows. Distribute the second column to all columns starting at row B.
Using a 12-channel multistepping pipette set to 4×10 μl, distribute 10 μl/well of inhibitor to the 384 well assay plate. Distribute the first row of the inhibitor dilution plate to alternate rows of the assay plate starting at A1. The tip spacing of the multichannel pipette will correctly skip alternate columns. Similarly, distribute the second, third and fourth rows to alternate rows and columns starting at A2, B1 and B2 respectively.
Mix 20 ml assay buffer and 20 μl 1M DTT. Add sufficient cathepsin S to give 2 nM final concentration.
Using the a distributor such as a Multidrop 384, add 30 μl/well to all wells of the assay plate and read in fluorescent spectrophotomoter such as an Ascent.
Fluorescent readings, (excitation and emission wavelengths 390 nm and 460 nm respectively, set using bandpass filters) reflecting the extent of enzyme cleavage of the fluorescent substrate, […] the inhibitor, are linear rate fitted for each well.
Fitted rates for all wells for each inhibitor are fitted to the competitive inhibition equation using SigmaPlot 2000 to determine V, Km and Ki values.
as §1, §2

[1] = reference markers for the permeability assay; cited from earlier work

T2 sequence (P25774 115-331): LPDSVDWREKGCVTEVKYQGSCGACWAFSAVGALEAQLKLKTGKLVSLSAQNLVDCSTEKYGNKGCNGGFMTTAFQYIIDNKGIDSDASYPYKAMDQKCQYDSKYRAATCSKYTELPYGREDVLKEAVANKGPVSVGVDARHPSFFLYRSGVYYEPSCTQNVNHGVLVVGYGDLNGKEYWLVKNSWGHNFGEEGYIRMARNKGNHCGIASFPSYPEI
Chain of cathepsin L (P07711 114-333): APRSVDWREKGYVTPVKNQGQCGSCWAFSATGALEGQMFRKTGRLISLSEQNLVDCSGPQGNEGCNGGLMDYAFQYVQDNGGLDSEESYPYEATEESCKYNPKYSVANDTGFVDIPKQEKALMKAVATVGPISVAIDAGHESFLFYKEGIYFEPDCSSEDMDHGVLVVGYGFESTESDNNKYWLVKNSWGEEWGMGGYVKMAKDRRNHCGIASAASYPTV

SMILES	IC50 (cathepsin K) [µM]	IC50 (cathepsin L) [µM]	IC50 (cathepsin S) [µM]	% absorption in man [1] [%]
CC(C)C[C@H](N[C@@H](c1ccc(-c2ccc(F)cc2)cc1)C(F)(F)F)C(=O)N1C[C@H](F)[C@H]2OCC(=O)[C@H]21 [Example 20, (3aS,6S,6aS)-6-Fluoro-4-{(S)-4-methyl-2-[(S)-2,2,2-trifluoro-1-(4′-fluoro-biphenyl-4-yl)-ethylamino]-pentanoyl}-tetrahydro-furo[3,2-b]pyrrol-3-one]	0.18	30	37	–
Cc1ccc(-c2ccc([C@H](N[C@@H](CC(C)C)C(=O)N3C[C@H](F)[C@H]4OCC(=O)[C@H]43)C(F)(F)F)cc2)cc1 [Example 33, (3aS,6S,6aS)-6-Fluoro-4-{(S)-4-methyl-2-[(S)-2,2,2-trifluoro-1-(4′-methyl-biphenyl-4-yl)-ethylamino]-pentanoyl}-tetrahydro-furo[3,2-b]pyrrol-3-one]	0.19	20	20	–
N[C@@H](Cc1ccccc1)C(=O)O [L-Phenylalanine]	–	–	–	100
OC[C@@H](O)[C@@H](O)[C@H](O)[C@H](O)CO [Mannitol]	–	–	–	16
CN(Cc1cnc2nc(N)nc(N)c2n1)c1ccc(C(=O)N[C@@H](CCC(=O)O)C(=O)O)cc1 [Methotrexate]	–	–	–	20

Second part, led by results:

IC50 (cathepsin K) [µM]	IC50 (cathepsin L) [µM]	IC50 (cathepsin S) [µM]	SMILES	% absorption in man [1] [%]
0.029	100	36	CC(C)C[C@H](N[C@@H](c1ccc(-c2ccc(S(C)(=O)=O)cc2)cc1)C(F)(F)F)C(=O)N1C[C@H](F)[C@H]2OCC(=O)[C@H]21 [Example 14, (3aS,6S,6aS)-6-Fluoro-4-[(S)-4-methyl-2-{(S)-2,2,2-trifluoro-1-(4′-methanesulfonyl-biphenyl-4-yl)-ethylamino]-pentanoyl}-tetrahydro-furo[3,2-b]pyrrol-3-one]	–
0.056	94	19	CC(C)C[C@H](N[C@@H](c1ccc(-c2cccc(S(C)(=O)=O)c2)cc1)C(F)(F)F)C(=O)N1C[C@H](F)[C@H]2OCC(=O)[C@H]21 [Example 18, (3aS,6S,6aS)-6-Fluoro-4-{(S)-4-methyl-2-[(S)-2,2,2-trifluoro-1-(3′-methanesulfonyl-biphenyl-4-yl)-ethylamino]-pentanoyl}-tetrahydro-furo[3,2-b]pyrrol-3-one]	–
0.044	25	22	CC(C)C[C@H](N[C@@H](c1ccc(-c2ccccc2F)cc1)C(F)(F)F)C(=O)N1C[C@H](F)[C@H]2OCC(=O)[C@H]21 [Example 26, (3aS,6S,6aS)-6-Fluoro-4-{(S)-4-methyl-2-[(S)-2,2,2-trifluoro-1-(2′-fluoro-biphenyl-4-yl)-ethylamino]-pentanoyl}-tetrahydro-furo[3,2-b]pyrrol-3-one]	–
0.051	5.5	10	CSc1ccc(-c2ccc([C@H](N[C@@H](CC(C)C)C(=O)N3C[C@H](F)[C@H]4OCC(=O)[C@H]43)C(F)(F)F)cc2)cc1 [Example 28, (3aS,6S,6aS)-6-Fluoro-4-{(S)-4-methyl-2-[(S)-2,2,2-trifluoro-1-(4′-methylsulfanyl-biphenyl-4-yl)-ethylamino]-pentanoyl}-tetrahydro-furo[3,2-b]pyrrol-3-one]	–
0.018	180	27	CC(C)C[C@H](N[C@@H](c1ccc(-c2ccc([S+](C)[O-])cc2)cc1)C(F)(F)F)C(=O)N1C[C@H](F)[C@H]2OCC(=O)[C@H]21 (stereo partly drawn) [Example 29, (3aS,6S,6aS)-6-Fluoro-4-{(S)-4-methyl-2-[(S)-2,2,2-trifluoro-1-(4′-methylsulfoxide-biphenyl-4-yl)-ethylamino]-pentanoyl}-tetrahydro-furo[3,2-b]pyrrol-3-one]	–
0.07	29	19	COc1ccc(-c2ccc([C@H](N[C@@H](CC(C)C)C(=O)N3C[C@H](F)[C@H]4OCC(=O)[C@H]43)C(F)(F)F)cc2)cc1 [Example 31, (3aS,6S,6aS)-6-Fluoro-4-{(S)-4-methyl-2-[(S)-2,2,2-trifluoro-1-(4′-methoxy-biphenyl-4-yl)-ethylamino]-pentanoyl}-tetrahydro-furo[3,2-b]pyrrol-3-one]	–
< 0.005	139	188	CC(C)C[C@H](N[C@@H](c1ccc(-c2csc(N3CCN(C)CC3)n2)cc1)C(F)(F)F)C(=O)N1C[C@H](F)[C@H]2OCC(=O)[C@H]21 [Example 58, (3aS,6S,6aS)-6-Fluoro-4-[(S)-4-methyl-2-((S)-2,2,2-trifluoro-1-{4-[2-(4-methyl-piperazin-1-yl)-thiazol-4-yl]-phenyl}-ethylamino)-pentanoyl]-tetrahydro-furo[3,2-b]pyrrol-3-one]	–
